Activity calls are given as the source filed them. No cut-off for these calls is given here.
Tests used:
[1] = biological target: T1, Son of sevenless homolog 1 (Homo sapiens, UniProt Q07889); assay: Agonist activity at SOS1 in human HeLa cells expressing wild type KRAS assessed as increase in p-ERK level incubated for 30 mins by Western blot analysis; type: cell-based
T1 sequence (Q07889 whole entry): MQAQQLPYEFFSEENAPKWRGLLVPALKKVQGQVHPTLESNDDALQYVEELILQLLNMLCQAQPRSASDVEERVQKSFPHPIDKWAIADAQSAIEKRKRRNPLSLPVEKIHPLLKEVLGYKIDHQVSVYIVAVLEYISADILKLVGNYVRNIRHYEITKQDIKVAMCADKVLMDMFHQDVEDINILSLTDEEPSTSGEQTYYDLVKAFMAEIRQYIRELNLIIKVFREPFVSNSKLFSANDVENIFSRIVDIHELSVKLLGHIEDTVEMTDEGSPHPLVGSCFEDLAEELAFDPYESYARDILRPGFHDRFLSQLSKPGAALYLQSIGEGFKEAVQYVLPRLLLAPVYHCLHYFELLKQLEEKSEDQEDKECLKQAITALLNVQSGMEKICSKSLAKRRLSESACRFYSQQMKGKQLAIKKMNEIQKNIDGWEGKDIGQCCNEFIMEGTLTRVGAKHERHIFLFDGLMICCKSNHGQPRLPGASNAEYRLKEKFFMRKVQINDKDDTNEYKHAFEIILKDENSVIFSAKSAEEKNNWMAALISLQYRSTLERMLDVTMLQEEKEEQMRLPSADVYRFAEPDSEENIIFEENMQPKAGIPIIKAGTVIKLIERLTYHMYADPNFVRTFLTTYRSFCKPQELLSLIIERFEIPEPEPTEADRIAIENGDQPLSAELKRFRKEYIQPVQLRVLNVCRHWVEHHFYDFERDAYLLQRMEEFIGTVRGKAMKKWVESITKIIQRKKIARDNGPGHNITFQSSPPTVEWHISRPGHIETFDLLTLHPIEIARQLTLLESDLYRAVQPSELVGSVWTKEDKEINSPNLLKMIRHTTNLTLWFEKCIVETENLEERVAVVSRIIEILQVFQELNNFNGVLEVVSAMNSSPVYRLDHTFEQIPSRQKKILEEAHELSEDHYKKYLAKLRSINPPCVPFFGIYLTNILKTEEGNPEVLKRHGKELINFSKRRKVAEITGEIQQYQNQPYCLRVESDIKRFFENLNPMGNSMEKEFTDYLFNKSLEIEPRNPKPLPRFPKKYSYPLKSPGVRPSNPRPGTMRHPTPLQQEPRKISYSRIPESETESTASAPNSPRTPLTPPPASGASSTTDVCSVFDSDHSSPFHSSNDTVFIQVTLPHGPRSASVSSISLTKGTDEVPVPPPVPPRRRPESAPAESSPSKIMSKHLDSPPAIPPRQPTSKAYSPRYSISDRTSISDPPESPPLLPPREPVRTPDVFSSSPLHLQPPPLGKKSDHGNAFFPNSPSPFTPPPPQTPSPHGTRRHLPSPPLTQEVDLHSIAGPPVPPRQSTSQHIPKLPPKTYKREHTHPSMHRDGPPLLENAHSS

HeLa [2] = assay: Binding affinity to Pan-Ras GTPase in human HeLa cells expressing wild type KRAS assessed as increase in thermal stability at 37 to 60 degreeC at 10 uM incubated for 1 hr by CETSA; type: cell-based
NCI-H358 [3] = assay: Antiproliferative activity against human NCI-H358 cells expressing KRAS G12C mutant assessed as inhibition of cell growth incubated for 72 hrs by CCK-8 assay; type: functional, cell-based; conditions: NCI-H358, 72 h
[4] = biological target: T2, Son of sevenless homolog 1 (Homo sapiens) (UniProt Q07889); assay: Agonist activity at SOS1 in human HeLa cells expressing wild type KRAS assessed as increase in ERK1/2 phosphorylation by measuring increase in RAS-GTP level incubated for 30 mins by Western blot based pull down assay; type: cell-based; conditions: filed as agonist, dose 0-25 µM
T2 sequence (whole entry): T1 sequence (Q07889 whole entry)

[5] = biological target: T2, Son of sevenless homolog 1 (Homo sapiens); assay: Agonist activity at SOS1 in human HeLa cells expressing wild type KRAS assessed as increase in p-ERK1/2 level at T202/Y204 residue over 25 uM incubated for 30 mins by Western blot analysis; type: cell-based
HeLa [6] = assay: Antiproliferative activity against human HeLa cells expressing wild type KRAS assessed as inhibition of cell growth incubated for 72 hrs by CCK-8 assay; type: functional, cell-based
[7] = biological target: T2, Son of sevenless homolog 1 (Homo sapiens); assay: Agonist activity at SOS1 in human HeLa cells with siRNA-mediated SOS1 knockdown assessed as activation of p-ERK1/2 at <25 uM incubated for 30 mins by immunoblot analysis; type: cell-based
[8] = biological target: T2, Son of sevenless homolog 1 (Homo sapiens); assay: Agonist activity at SOS1 in human HeLa cells assessed as activation of p-ERK1/2 at 3.1 to 25 uM incubated for 30 mins by immunoblot analysis; type: cell-based; conditions: filed as agonist, dose 3.1-25 µM
[9] = biological target: T2, Son of sevenless homolog 1 (Homo sapiens); assay: Binding affinity to SOS1 in human HeLa cells expressing wild type KRAS assessed as increase in thermal stability at 37 to 52 degreeC at 10 uM incubated for 1 hr by CETSA; type: cell-based
[10] = biological target: T2, Son of sevenless homolog 1 (Homo sapiens); assay: Binding affinity to SOS1 in human NCI-H358 cells expressing KRAS G12C mutant assessed as increase in thermal stability at 37 to 52 degreeC at 10 uM incubated for 1 hr by CETSA; type: cell-based
[11] = biological target: T2, Son of sevenless homolog 1 (Homo sapiens); assay: Agonist activity at SOS1 in human HeLa cells expressing wild type KRAS assessed as increase in p-ERK1/2 level at T202/Y204 residue at 0 to 12.5 uM incubated for 30 mins by Western blot analysis; type: cell-based; conditions: filed as agonist, dose 0-12.5 µM
NCI-H358 [12] = assay: Binding affinity to Pan-Ras GTPase in human NCI-H358 cells expressing KRAS G12C mutant assessed as increase in thermal stability at 37 to 60 degreeC at 10 uM incubated for 1 hr by CETSA; type: cell-based
A549 = assay: Antiproliferative activity against human A549 cells expressing KRAS G12S mutant assessed as inhibition of cell growth incubated for 72 hrs by CCK-8 assay; type: functional, cell-based; conditions: A549, 72 h
NCI-H358 [13] = assay: Activation of RAS signaling pathway in human NCI-H358 cells expressing KRAS G12C mutant assessed as upregulation of p-ERK level incubated for 4 hrs by Western blot analysis; type: cell-based; conditions: filed as activator, dose 0-20 µM

SMILES | EC50 [1] [µM] | also measured
C=CC(=O)N1CC2(CC(n3nc(C(=O)N4CCCc5cc(OC)ccc54)c4ccccc43)C2)C1 | > 20 | –
Cn1cc(-c2ccc3c(c2)c(-c2ccc4c(cnn4C)c2)nn3C2CC3(CNC3)C2)cn1 | > 20 | –
Cn1ncc2cc(-c3nn(C4CC5(CNC5)C4)c4ccc(-c5cn[nH]c5)cc34)ccc21 | > 20 | –
C=CC(=O)N1CC2(CC(n3nc(C(=O)Nc4ccc5[nH]ncc5c4)c4ccccc43)C2)C1 | > 20 | –
C=CC(=O)N1CC2(CC(n3nc(C(=O)N4CCc5cc(OC)ccc5C4)c4ccccc43)C2)C1 | > 20 | –
Cn1ncc2cc(NC(=O)c3nn(C4CC5(CNC5)C4)c4ccc(-c5cn[nH]c5)cc34)ccc21 | > 20 | –
C=CC(=O)N1CC2(CC(n3nc(C(=O)Nc4ccc5c(cnn5C)c4)c4ccccc43)C2)C1 | > 20 | –

Second part, led by results:

EC50 [1] [µM] | SMILES | also measured
> 20 | C=CC(=O)N1CC2(CC(n3nc(C(=O)Nc4ccc5[nH]ncc5c4)c4cc(-c5cn[nH]c5)ccc43)C2)C1 | –
1.53 | C=CC(=O)N1CC2(CC(n3nc(C(=O)Nc4ccc5c(cnn5C)c4)c4cc(-c5cn[nH]c5)ccc43)C2)C1 | Activity (HeLa [2]): inactive; IC50 (NCI-H358 [3]): 6.04 µM; Activity [4]: Active; Activity [5]: inactive; IC50 (HeLa [6]): 9.19 µM; Activity [7]: inactive; Activity [8]: Active; Activity [9]: Active; Activity [10]: Active; Activity [11]: Active; Activity (NCI-H358 [12]): inactive; IC50 (A549): 9.61 µM
14.2 | C=CC(=O)N1CC2(CC(n3nc(-c4ccc5c(cnn5C)c4)c4cc(-c5c[nH]nc5C)c(Cl)cc43)C2)C1 | Activity (NCI-H358 [13]): Dose-Dependent Effect
9.01 | C=CC(=O)N1CC2(CC(n3nc(-c4ccc5c(cnn5C)c4)c4cc(-c5cn[nH]c5)ccc43)C2)C1 | –
4.37 | CCC(=O)N1CC2(CC(n3nc(C(=O)Nc4ccc5c(cnn5C)c4)c4cc(-c5cn[nH]c5)ccc43)C2)C1 | –
5.45 | C=CC(=O)N1CC2(CC(n3nc(C(=O)Nc4ccc5cnn(C)c5c4)c4cc(-c5cn[nH]c5)ccc43)C2)C1 | –

Reference: ChEMBL document CHEMBL5390210, “Discovery of novel indazole derivatives as SOS1 agonists that activate KRAS signaling” (Bioorg Med Chem, 2023)
